Measured values from PubChem BioAssay AID248 (DTP/NCI, 2004).
Where “and” joins values, the source holds several entries; their conditions need not be identical. Identical values can stand only once. Toxic doses and inconclusive results are not listed. Cut-off read from the data, not from the text of the source: active = T/C of 150% or more; inactive = T/C below 125%.

Tested on: L1210 leukemia ip in BDF1 mice, survival T/C
Experiment: NCI In Vivo Anticancer Drug Screen. Data for tumor model L1210 Leukemia (intraperitoneal) in B6D2F1 (BDF1) mice
Conditions: endpoint: mean survival time, higher = longer survival
Procedure, shortened: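 Tumor was transplanted into mice, which were then dosed with test compound or vehicle alone. Survival was recorded for each group, and the treated figure was expressed relative to the control figure.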

Measured: T/C

Cc1cc(=O)n2c3c(c(N)ccc13)OC2
inactive: dose: 100.0 mg/kg/injection, schedule: Q01DX009 (ip), vehicle: Klucel (hydroxypropylcellulose) (HPC) 108 % of control | dose: 100.0 mg/kg/injection, schedule: Q04DX003 (ip), vehicle: Klucel (hydroxypropylcellulose) (HPC) 93 % of control | dose: 200.0 mg/kg/injection, schedule: Q01DX009 (ip), vehicle: Klucel (hydroxypropylcellulose) (HPC) 97 % of control | dose: 200.0 mg/kg/injection, schedule: Q04DX003 (ip), vehicle: Klucel (hydroxypropylcellulose) (HPC) 100 % of control | dose: 400.0 mg/kg/injection, schedule: Q01DX009 (ip), vehicle: Klucel (hydroxypropylcellulose) (HPC) 93 % of control | dose: 400.0 mg/kg/injection, schedule: Q04DX003 (ip), vehicle: Klucel (hydroxypropylcellulose) (HPC) 97 % of control

COC1=C(N)C(=O)c2nc(-c3nc(C(=O)O)c(C)c(-c4ccc(OC)c(OC)c4O)c3N)ccc2C1=O
inactive: dose: 0.02 mg/kg/injection, schedule: Q01DX009 (ip), vehicle: other 86 % of control | dose: 0.05 mg/kg/injection, schedule: Q01DX009 (ip), vehicle: other 94 % of control | dose: 0.05 mg/kg/injection, schedule: Q04DX002 (ip), vehicle: saline 106 % of control | dose: 0.1 mg/kg/injection, schedule: Q01DX Z (ip), vehicle: alkali diluted with CMC 103 % of control and 109 % of control | dose: 0.1 mg/kg/injection, schedule: Q01DX Z (ip), vehicle: water 105 % of control | dose: 0.1 mg/kg/injection, schedule: Q04DX002 (ip), vehicle: saline 120 % of control | dose: 0.12 mg/kg/injection, schedule: Q01DX001 (iv), vehicle: other 102 % of control | dose: 0.12 mg/kg/injection, schedule: Q01DX009 (ip), vehicle: saline 106 % of control | dose: 0.18 mg/kg/injection, schedule: Q01DX001 (ip), vehicle: other 124 % of control | dose: 0.2 mg/kg/injection, schedule: Q01DX009 (ip), vehicle: other 102 % of control | dose: 0.2 mg/kg/injection, schedule: Q01DX Z (ip), vehicle: alkali diluted with CMC 96 % of control and 106 % of control | dose: 0.2 mg/kg/injection, schedule: Q01DX Z (ip), vehicle: water 105 % of control | dose: 0.2 mg/kg/injection, schedule: Q04DX002 (ip), vehicle: saline 113 % of control | dose: 0.25 mg/kg/injection, schedule: Q01DX001 (iv), vehicle: other 114 % of control | dose: 0.25 mg/kg/injection, schedule: Q01DX009 (ip), vehicle: saline 106 % of control and 116 % of control | dose: 0.25 mg/kg/injection, schedule: Q01DX015 (ip), vehicle: water 118 % of control | dose: 0.3 mg/kg/injection, schedule: Q01DX Z (ip), vehicle: water 102 % of control | dose: 0.39 mg/kg/injection, schedule: Q04DX002 (ip), vehicle: saline 110 % of control | dose: 0.4 mg/kg/injection, schedule: Q01DX Z (ip), vehicle: alkali diluted with CMC 104 % of control and 106 % of control | dose: 0.45 mg/kg/injection, schedule: Q01DX Z (ip), vehicle: saline 107 % of control | dose: 0.5 mg/kg/injection, schedule: Q01DX001 (ip), vehicle: carboxymethylcellulose (CMC) 95 % of control | dose: 0.5 mg/kg/injection, schedule: Q01DX001 (iv), vehicle: other 105 % of control | dose: 0.5 mg/kg/injection, schedule: Q01DX009 (ip), vehicle: saline 108 % of control and 86 % of control | dose: 0.5 mg/kg/injection, schedule: Q01DX015 (ip), vehicle: water 101 % of control | dose: 0.66 mg/kg/injection, schedule: Q01DX Z (ip), vehicle: saline 110 % of control | dose: 0.75 mg/kg/injection, schedule: Q01DX001 (ip), vehicle: other 118 % of control | dose: 0.78 mg/kg/injection, schedule: Q04DX002 (ip), vehicle: saline 106 % of control | dose: 0.8 mg/kg/injection, schedule: Q01DX Z (ip), vehicle: alkali diluted with CMC 96 % of control and 91 % of control | dose: 1.0 mg/kg/injection, schedule: Q01DX001 (iv), vehicle: other 91 % of control | dose: 1.5 mg/kg/injection, schedule: Q01DX001 (ip), vehicle: other 121 % of control | dose: 1.5 mg/kg/injection, schedule: Q01DX001 (ip), vehicle: saline 120 % of control | dose: 2.0 mg/kg/injection, schedule: Q01DX001 (ip), vehicle: carboxymethylcellulose (CMC) 88 % of control | dose: 2.5 mg/kg/injection, schedule: Q01DX001 (oral), vehicle: water 105 % of control | dose: 5.0 mg/kg/injection, schedule: Q01DX001 (oral), vehicle: water 98 % of control | dose: 10.0 mg/kg/injection, schedule: Q01DX001 (oral), vehicle: water 88 % of control
